Data on eight molecules can be found in patent US11446516B2, “Methods of increasing response to cancer radiation therapy” (THE TRUSTEES OF THE UNIVERSITY OF PENNSYLVANIA, priority 2013, dated 2022).

“Also recorded” adds a separate entry of the source. Like-named read-outs stand apart in the source and are kept apart here. Where a SMILES comes first, the peptide text is derived from it. The star is where a group is joined. Cbz = O=C(OCc1ccccc1)*

Assay [1] has as its system Akt, MAPK, GSK3-β, snail, slug, KLF4 in SK-BR-3 cells. The assay can be described thus: Western blot of erbB downstream signaling and Snail/Slug, SK-BR-3. The assay is classed as cell-based, human. On the technique in general: In western blotting, separated proteins are transferred to a membrane and probed.
Assay [2] has as its system Akt, MAPK, snail in MDA-MB-453 cells. Nature of the assay: Western blot of signaling and snail, MDA-MB-453. The assay is classed as cell-based. As to conditions: 24 hours (FIG. 20B).
The test system of a further assay is H2N113 tumors. The assay is classed as in vivo.
The next assay has as its system BT-474 cells. The assay can be described thus: MTT cell viability assay, BT-474. In kind it is cell-based. Conditions: FIG. 43, FIG. 48. A general note: Tetrazolium dyes change colour on reduction, which living cells bring about.
The next assay concerns SK-BR-3 cells. Nature of the assay: Soft agar growth (foci formation) assay, SK-BR-3. In kind it is cell-based, human. Conditions: 14 days in soft agar, ImageJ.
The test system of a further assay is MCF10A cells. Nature of the assay: MTT cell viability assay, MCF10A. The assay is classed as cell-based. As to conditions: 8 days.
The test system of a further assay is MDA-MB-231 cells. Nature of the assay: MTT cell viability assay, MDA-MB-231. In kind it is cell-based. As to conditions: FIG. 43 / FIG. 55C.
The test system of a further assay is H2N113 (IFNγR KD) tumors. The assay can be described thus: Implanted H2N113 (IFNγR KD) tumor growth in MMTV-neu mice. Conditions: suboptimal 7.16.4 1.5 mg/kg; IFN-γ 5×10^5 IU/kg (FIG. 33). The assay is classed as in vivo, mouse.
In assay [3] the test system is class I and class II MHC antigens in SKBR3 cells. The assay can be described thus: MHC expression in SKBR3 cells by FACS. In kind it is cell-based, human. Conditions: FIG. 4. On the technique in general: In flow cytometry, cells or beads pass a laser one at a time.
The next assay has as its system MDSC. Nature of the assay: In vitro MDSC migration assay (Transwell, H2N113 conditioned medium). The assay is classed as cell-based, mouse. Conditions: H2N113 treated 3 days (FIG. 9).
A further assay has as its system H2N113 cells. Nature of the assay: Cytotoxicity assay of spleen CD8+ T cells from treated mice. In kind it is in vivo, mouse. Conditions: suboptimal mAb and IFN-γ (FIG. 52).
In the next assay the test system is PD-L1. Nature of the assay: PD-L1 expression in treated tumors. The assay is classed as in vivo, mouse. Conditions: FIG. 60A. As for the experimental part: FIG. 60A-FIG. 60C. PD-L1 expression is increased in tumors treated with IFN-γ. FIG. 60A—Western blotting was performed with anti-PD-L1 antibody with the tumors from each indicated group of mice after treatment in the same way as FIG. 59A. FIG. 60B—FACS analysis of PD-L1 expression in tumor cells from control IgG and 7.16.4+IFN-γ treated mice. Tumor cells are gated as CD45-large size cells which we confirmed most of them are tumor cells by 7.16.4 antibody. **P<0.02. FIG. 60C—Administration of anti-PD-L1 antibody with the ordered therapy. Mice were treated with control PBS, 7.16.4 (1.5 mg/kg, three times per week) and anti-PDL1 (5 mg/kg, twice per week), 7.16.4 and IFN-γ ([…], three times per week), or the combination of IFN-γ, 7.16.4 and anti-PD-L1. Data represent mean+SEM.
This is also consistent with why IFN-γ alone is not useful for cancer therapy (Zaidi and Merlino, 2011). […] It is possible that PD-L1 acts as a negative immune regulator induced by IFN-γ treatment alone. […] To determine if PD-L1 can be further targeted for this ordered therapy, we used anti-PD-L1 antibody along with 7.16.4 and IFN-γ.

In another assay the test system is H2N113 (IFNγR KD) cells. Nature of the assay: IFN-γ response of H2N113 (IFNγR KD) cells in vitro. In kind it is cell-based, mouse.
Where [4] appears, read: inhibitor added during final 8 hours of two-day 4D5 and IFN-γ treatment.

Take `O.O=C(O)C(F)(F)F.O=c1[nH]c2ccccc2n1C1CCN(Cc2ccc(-c3nc4cc5[nH]cnc5cc4nc3-c3ccccc3)cc2)CC1` [Akt1/2 inhibitor]: the snail protein level result in assay [1] (Western blot) was “dose-dependent decrease in snail content”.
Regarding `CC(C)C[C@@H](C=O)NC(=O)[C@H](CC(C)C)NC(=O)[C@H](CC(C)C)NC(=O)OCc1ccccc1` [MG-132] (Cbz-Leu-Leu-Leu-aldehyde), in assay [1] (setting [4]), the “slug content under 4D5 and IFN-γ co-treatment” value was “no change in slug content”; the “snail content under 4D5 and IFN-γ co-treatment” value (“snail content” for short) is on record as “inhibited the co-treatment-mediated reduction of snail in a dose-dependent manner”.
Regarding `Cc1c[nH]c(-c2cnc(NCCNc3ccc(C#N)cn3)nc2-c2ccc(Cl)cc2Cl)n1` [CHIR99021], in assay [1] (setting [4]), the “slug content under 4D5 and IFN-γ co-treatment” value was “no change in slug content”; the “snail content” value is “dose-dependent rescue of snail”.
`CS(=O)(=O)CCNCc1ccc(-c2ccc3ncnc(Nc4ccc(OCc5cccc(F)c5)c(Cl)c4)c3c2)o1` [lapatinib, Lapatinib]: the Akt pathway activity entry in assay [1] (24 hours (FIG. 20A, 20B)) is “inactivated; also recorded: diminished Akt activity in both cell lines”. Moreover, in assay [1] (Western blot), the slug protein level result was “not slug” and the snail protein level entry is given as “dose-dependent reduction in snail”. In addition, in assay [2], the Akt activity entry was “diminished Akt activity in both cell lines” and the snail protein level entry is given as “snail is reduced upon lapatinib treatment”.
On to IFNα, for which, in the assay on H2N113 tumors (FIG. 7), the “anti-tumor activity of IFNα on its own” value is reported as “appears to have anti-tumor activity on its own”. Further, in the assay on H2N113 tumors (IFNα in combination with mAb 7.16.4 (FIG. 7)), the “enhancement of mAb 7.16.4 activity to suppress tumor growth” value is on record as “could not enhance mAb 7.16.4 activity”.
With `CC/C(=C(\c1ccc(O)cc1)c1ccc(OCCN(C)C)cc1)c1ccccc1` [4-OH tamoxifen], the cell viability result in the assay on BT-474 cells was “reduced viability in the cIgG-treated cells; also recorded: complemented 4D5 treatment; also recorded: did not further sensitize the cells to IFN-γ in combination with 4D5”.
On to `CCN(CC)CCCC(C)Nc1ccnc2cc(Cl)ccc12` (stereo not shown) [chloroquine], for which the “snail content” value in assay [1] is “increased snail content but was unable to rescue”.

B1: IFN-γ: recombinant interferon-gamma (SEQ ID NO: 5) (protein)
chain: QDPYVKEAENLKKYFNAGHSDVADNGTLFLGILKNWKEESDRKIMQSQIVSFYFKLFKNFKDDQSIQKSVETIKEDMNVKFFNSNKKKRDDFEKLTNYSVTDLNVQRKAIHELIQVMAELSPAAKTGKRKRSQ
modifications: IFN-gamma
As for B1, the “percentage of foci greater than 20 pixels” value with SK-BR-3 cells is 52±8%. Further, the “percentage of foci less than 20 pixels” value in the assay with SK-BR-3 cells was 48±8%. Also, the figures for the cell viability result with MCF10A cells and in the assay with MDA-MB-231 cells were “minimal changes to their viability” and “did respond to IFN-γ alone”, respectively. Further, in [1] (Western blot (FIG. 21A)), the GSK3-β activation entry is “unable to do so”. In the assay on H2N113 tumors (BALB/c mice, 7.16.4 1.5 mg/kg, IFN-γ 5×10^5 IU/kg (FIG. 26)), the tumor volumes result is “demonstrable effect”. Further, the tumor growth entry in the assay with H2N113 tumors (MMTV-neu mice, 7.16.4 1.5 mg/kg twice per week, IFN-γ 5×10^5 IU/kg three times per week (FIG. 1), 1.5 mg/kg) is “aggressive tumor growth; also recorded: failed to significantly inhibit tumor growth”; in the assay on H2N113 (IFNγR KD) tumors it was “no effect on its own”. Further, the “class II MHC antigen expression” value in assay [3] is “no effect”. The “MDSC migration induced by H2N113 conditioned medium” value with MDSC is given as “no appreciable effects”. Moreover, the “effector CD8+ T cell activity against H2N113 cells” value in the assay with H2N113 cells is “negligible effects”. Also, the “PD-L1 expression in tumor tissues” value with PD-L1 was “dramatically induced PD-L1 expression”. For the same molecule, the “IFN-γ mediated growth suppression” value with H2N113 (IFNγR KD) cells (5 days, LDH activity (FIG. 32C)) is “resistant to IFN-γ mediated growth suppression”. The “IFN-γ induced MHC expression” value with H2N113 (IFNγR KD) cells (FIG. 32B) was “diminished”.
